Measured values from publication PMC7127258 (European Journal of Medicinal Chemistry, 2013).

Key:
[1] = system: interferon; conditions: rodents and cats; administered orally or intraperitoneally; cited from earlier work
[2] = system: renal papillae of rats; conditions: cited from earlier work
[3] = system: vesicular stomatitis virus (VSV); assay type: cell-based

| Structure (SMILES) | Interferon induction [1] | Toxicity upon chronic administration [2] | EC50 vesicular stomatitis virus [3] |
| --- | --- | --- | --- |
| Cc1nc(N)nc(O)c1Br [Compound 6, 2-amino-5-bromo-6-methyl-4(3H)-pyrimidinone] | reported to induce interferon | toxicity-limiting crystal deposition in the renal papillae of rats | – |
| CCCCCc1nc(N)[nH]c(=O)c1Br [Compound 14c, 2-Amino-5-bromo-6-pentylpyrimidin-4(3H)-one] | – | – | anti-VSV activity was not observed in HEL cell cultures |
